Data taken from PMC11679793, “Structure-Activity Relationship Study of Majusculamide D: Overcoming Metabolic Instability and Severe Toxicity with a Fluoro Analogue” (Marine Drugs, 2024).

How the values were obtained:
[1] = test system: PANC-1 cells; test: MTT cell activity assay (inhibitory activity against PANC-1 cells); type: cell-based; settings: Homo sapiens, PANC-1, 72 h, read-out: IC50 (nM), inhibitory activity against PANC-1 cells (Table 1), PANC-1 cells, 72 h incubation, mean ± SD, n = 3
Protocol: A total of 3000 PANC-1 cells were resuspended in 200 μL of culture medium and seeded into 96-well plates. After 24 h, the cells were treated with the compound and incubated for an additional 72 h. Following the incubation, 20 μL of 5 mg/mL MTT solution (Solarbio, China) was added to each well in the dark, and the cells were incubated for another 4 h. After incubation, the culture medium was discarded, and the wells were washed with PBS to remove any residual medium. Then, 200 μL of DMSO was added to each well to fully dissolve the formazan crystals, and the solution was mixed thoroughly. The absorbance was measured at 492 nm/570 nm, and the data were analyzed using GraphPad Prism.

[2] = Stability in mouse plasma assay; type: in vitro ADME; settings: 1 μM, 37 °C; for stability in mouse plasma compared to 1a (in words): 0-24 h
Protocol: Thaw plasma at room temperature and vortex for 3–5 s. Centrifuge at 3000 rpm at 10 °C for 10 min, and carefully transfer the supernatant to a new Eppendorf tube. Preincubate the plasma at 37 °C for 10 min. Prepare a series of test substances by adding 3 μL of the compound (100 μM) to 297 μL of plasma to achieve a final concentration of 1 μM, ensuring that the DMSO concentration in plasma is 1%. Propantheline bromide is used as a positive control. Incubate the mixture at 37 °C, and at specified time points (0, 1, 2, 4, and 24 h), take 50 μL of the plasma sample. To terminate the reaction, add 250 μL of acetonitrile (containing an internal standard), vortex thoroughly, and centrifuge at 16,000 rcf (4 °C) for 10 min. Collect 130 μL of the supernatant and dilute with 70 μL of pure water for LC-MS/MS analysis. The concentration of the test substances in plasma samples was determined using LC-MS/MS. The stability of the test substance in plasma was evaluated by measuring the remaining percentage of the compound in the plasma over time.

[3] = test system: PANC-1 xenograft tumor; settings: for tumor inhibition rate (%): calculated from tumor weight, 1c, gemcitabine 20 mg/kg i.v.
Protocol: Furthermore, a xenografted murine subcutaneous tumor model was employed to evaluate the effects of majusculamide D and the optimized analogues 1c and 1n (Figure 1B). PANC1-bearing BALB/c nude mice were separated randomly, with a total of six mice in each group. Gemcitabine was chosen as the positive drug; the mice were then administered intravenous doses of 1c (5 mg/kg), 1n (5 mg/kg), 1a (5 mg/kg), and gemcitabine (20 mg/kg) every other day for 24 days.
A total of 4 × 10^6 PANC-1 cells suspended in 100 μL PBS were subcutaneously injected into the right shoulder region of BALB/c nude mice. When the tumor volume reached approximately 200 mm^3, the mice were euthanized, and the tumor tissues were harvested and designated as F1 generation. Tumor tissues were then cut into small cubes measuring approximately 3 × 3 × 3 mm, which were implanted into new BALB/c mice to propagate the tumors. This procedure was repeated to obtain the F2 generation of tumors. Finally, mice bearing F3 generation transplant tumors were used for drug treatment experiments. When the tumor volume reached approximately 80–100 mm^3, the mice were randomly divided into five groups (n = 6): control group, 5 mg/kg compound 1a group, 5 mg/kg compound 1c group, 5 mg/kg compound 1n group, and 20 mg/kg gemcitabine group. The compounds 1a, 1c, and 1n were dissolved in DMSO and then diluted with 0.9% physiological saline to achieve a final concentration of 0.5 mg/mL as the dosing concentration. Gemcitabine was dissolved directly in 0.9% saline to achieve a final concentration of 2 mg/mL as the dosing concentration. The compounds were administered intravenously every two days, alternating between the left and right tail veins to minimize vein damage. Injections were performed using ultra-fine syringes (30G needles) to reduce stress and ensure consistent delivery. The body weight and tumor volume of the mice were measured every four days. On day 24, the mice were euthanized, and the tumor weights were recorded. Tumor volume (V) was calculated using the formula: V = (ab^2)/2, with “a” representing the long diameter of the tumor and “b” representing the short diameter of the tumor. […] Tumor weight was used to calculate the tumor inhibition rate (Figure 1G).

[4] = Serum biochemical analysis and H&E histology of liver and kidney; type: in vivo, mice; settings: 5 mg/kg every other day, 14 days
Protocol: In the biochemical and histological assays, 1n (5 mg/kg) and 1a (5 mg/kg) were administered to mice every other day, with the control group receiving an equivalent dose of saline. Following 14 days, mouse serum was collected for biochemical analysis, and organs were fixed for histological examination. […] In comparison, the liver tissues of the 1n-treated and control groups were normal.
Mice were euthanized, and liver and kidney tissues were collected and fixed in 10% neutral-buffered formalin for 48 h. The fixed tissues were processed for paraffin embedding, including dehydration in a graded ethanol series, clearing with xylene, and infiltration with molten paraffin wax. Paraffin blocks were sectioned into 4 μm slices using a rotary microtome, and the sections were mounted onto glass slides. The slides were dried at 60 °C for 4 h to ensure proper tissue adhesion. Following deparaffinization and rehydration, staining was performed according to the manufacturer’s instructions for the H&E staining kit (Solarbio, China). The sections were immersed in a hematoxylin solution for 3 min to stain the nuclei and then rinsed under running tap water for 1 minute to remove excess stain. Differentiation was achieved by briefly immersing the slides in a 1% hydrochloric acid-ethanol solution, followed by neutralization in 0.6% ammonia water until the nuclei appeared blue. Eosin staining was applied for 30 s to stain cytoplasmic and extracellular components, imparting a pink coloration. The slides were rinsed under running tap water for 30 s to remove excess eosin. Finally, the sections were dehydrated through a graded ethanol series, cleared with xylene, and coverslipped with a neutral resin mounting medium to preserve the stained tissues for microscopic examination.

Row | Compound | IC50 [1] | stability in mouse plasma compared to 1a (in words) [2] | tumor inhibition rate (%) ([3]; day 24, 1a, 1n 5 mg/kg) | kidney tissue H&E histology [4] | liver tissue H&E histology [4] | serum ALT and AST levels compared to the control group ([4]; n = 3) | remaining percentage in mouse plasma after 24 h ([2]; 24 h incubation) | impact on mouse body weight gain ([3]; 5 mg/kg i.v. every other day, 24 days) | mice dead in treated group ([3]; 5 mg/kg i.v., xenografted mouse model, six mice per group) | tumor weight ([3]; day 24, i.v. every other day, 1a, 1n 5 mg/kg, gemcitabine 20 mg/kg, mean ± SD) | tumor volume ([3]; i.v. every other day for 24 days, 1a, 1n 5 mg/kg, gemcitabine 20 mg/kg, mean ± SD, n = 6) | remaining percentage in mouse plasma after 2 h ([2]; 2 h incubation)
1 | CCCCC(C)CC(C)C(=O)N(C)C(Cc1ccc(OC)cc1)C(=O)NC(C(=O)N(C)C(C(=O)N1CC(O)CC1C(=O)N1C(=O)C=CC1C)C(C)C)C(C)OC(F)(F)F (stereo not drawn) [Compound 1c] | 2.07 ± 0.67 nM | significantly superior stability compared to 1a | 40.4% | – | – | – | – | – | – | – | – | –
2 | CCCCCC[C@@H](C)C(=O)N(C)[C@@H](Cc1ccc(F)cc1)C(=O)N[C@H](C(=O)N(C)[C@H](C(=O)N1C[C@@H](O)C[C@H]1C(=O)N1C(=O)C=C[C@@H]1C)C(C)C)[C@@H](C)OC(F)(F)F [Compound 1n] | 3.83 nM | significantly superior stability compared to 1a | 51.5% | no significant pathological differences | normal | no significant differences | > 50% | lesser impact on weight gain compared to 1a | no mouse dead | 0.542 ± 0.156 g | 553.3 ± 166.8 mm^3 | –
3 | CC(C)[N+](C)(CCOC(=O)C1c2ccccc2Oc2ccccc21)C(C)C [bromopropyl, Propantheline bromide, reference compound] | – | – | – | – | – | – | – | – | – | – | – | 0.90%
